Experimental data from ChEMBL document CHEMBL4342403, “New evolutions in the BACE1 inhibitor field from 2014 to 2018” (Bioorg Med Chem Lett, 2019).

Experiments:
Rattus norvegicus [1] = experiment: In vivo inhibition of BACE1 in Sprague Dawley rat assessed as reduction in amyloidbeta 40 level in CSF at 10 mg/kg, po measured at 4 hrs post dose by sandwich ELISA relative to control; type: functional
Beta-secretase 1 [2] = target: T1, Beta-secretase 1 (Homo sapiens, UniProt P56817); experiment: Inhibition of BACE1 (unknown origin) preincubated for 1 hr followed by substrate addition and measured after 1 hr by FRET assay
Cathepsin D = Cathepsin D (Homo sapiens, UniProt P07339); experiment: Inhibition of recombinant Cathepsin D (unknown origin) expressed in CHO cells preincubated for 1 hr followed by substrate addition and measured after 1 hr by FRET assay; type: cell-based
Beta-secretase 1 [3] = target: T1, Beta-secretase 1; experiment: Inhibition of BACE1 (unknown origin) assessed as reduction in amyloidbeta 40 level after 24 hrs by cell-based sandwich ELISA
Rattus norvegicus [4] = experiment: In vivo inhibition of BACE1 in Sprague Dawley rat assessed as reduction in amyloidbeta 40 level in brain at 10 mg/kg, po measured at 4 hrs post dose by sandwich ELISA relative to control; type: functional

T1 sequence (P56817 whole entry): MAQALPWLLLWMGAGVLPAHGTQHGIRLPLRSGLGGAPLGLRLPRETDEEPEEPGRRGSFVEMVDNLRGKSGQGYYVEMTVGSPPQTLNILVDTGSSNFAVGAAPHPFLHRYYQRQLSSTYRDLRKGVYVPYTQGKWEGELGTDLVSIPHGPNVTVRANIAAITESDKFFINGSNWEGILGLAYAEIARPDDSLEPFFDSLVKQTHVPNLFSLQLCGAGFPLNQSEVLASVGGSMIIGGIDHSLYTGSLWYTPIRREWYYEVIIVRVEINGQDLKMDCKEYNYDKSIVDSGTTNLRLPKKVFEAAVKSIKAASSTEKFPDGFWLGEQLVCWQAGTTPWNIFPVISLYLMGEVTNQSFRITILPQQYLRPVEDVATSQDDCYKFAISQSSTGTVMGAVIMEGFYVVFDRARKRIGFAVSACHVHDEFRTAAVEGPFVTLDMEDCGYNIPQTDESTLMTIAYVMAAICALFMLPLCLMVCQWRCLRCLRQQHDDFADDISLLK
Sequence of Cathepsin D (P07339 65-162 limits assumed): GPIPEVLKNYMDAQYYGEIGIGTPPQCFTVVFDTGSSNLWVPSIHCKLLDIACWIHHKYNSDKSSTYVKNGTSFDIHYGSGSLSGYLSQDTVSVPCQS
Sequence of Cathepsin D (P07339 169-412 limits assumed): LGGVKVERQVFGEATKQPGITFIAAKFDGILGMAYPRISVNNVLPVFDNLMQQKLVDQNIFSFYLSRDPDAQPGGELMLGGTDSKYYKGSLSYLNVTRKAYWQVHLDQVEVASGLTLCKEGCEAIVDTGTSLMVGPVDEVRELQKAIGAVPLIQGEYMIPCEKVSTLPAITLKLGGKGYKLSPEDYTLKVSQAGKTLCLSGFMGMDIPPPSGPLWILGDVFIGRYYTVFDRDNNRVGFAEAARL

Cc1cc(Cl)cnc1C(=O)Nc1ccc(F)c([C@@]2(C)N=C(N)[C@]3(C)CC[C@H]2S3(=O)=O)c1
inhibition in vivo at 10 mg/kg (Rattus norvegicus [1]): 76% | IC50 (Beta-secretase 1 [2]): 0.002 µM | IC50 (Cathepsin D): 1740 µM | IC50 (Beta-secretase 1 [3]): 0.002 µM | inhibition in vivo at 10 mg/kg (Rattus norvegicus [4]): 66%
